Experimental data published in PMC12363935, “Unc-51 Like Kinase 3 (ULK3) is essential for autophagy and cell survival in multiple myeloma” (Research Square, 2025).

Tests used:
ULK1 = target: T1, ULK1 (Homo sapiens, UniProt O75385); assay: Kinase profiling assay (Reaction Biology), 10-dose IC50, 10 μM ATP; format: biochemical
T1 construct: purchased Reaction Biology Corporation
T1 sequence (O75385 1-1050): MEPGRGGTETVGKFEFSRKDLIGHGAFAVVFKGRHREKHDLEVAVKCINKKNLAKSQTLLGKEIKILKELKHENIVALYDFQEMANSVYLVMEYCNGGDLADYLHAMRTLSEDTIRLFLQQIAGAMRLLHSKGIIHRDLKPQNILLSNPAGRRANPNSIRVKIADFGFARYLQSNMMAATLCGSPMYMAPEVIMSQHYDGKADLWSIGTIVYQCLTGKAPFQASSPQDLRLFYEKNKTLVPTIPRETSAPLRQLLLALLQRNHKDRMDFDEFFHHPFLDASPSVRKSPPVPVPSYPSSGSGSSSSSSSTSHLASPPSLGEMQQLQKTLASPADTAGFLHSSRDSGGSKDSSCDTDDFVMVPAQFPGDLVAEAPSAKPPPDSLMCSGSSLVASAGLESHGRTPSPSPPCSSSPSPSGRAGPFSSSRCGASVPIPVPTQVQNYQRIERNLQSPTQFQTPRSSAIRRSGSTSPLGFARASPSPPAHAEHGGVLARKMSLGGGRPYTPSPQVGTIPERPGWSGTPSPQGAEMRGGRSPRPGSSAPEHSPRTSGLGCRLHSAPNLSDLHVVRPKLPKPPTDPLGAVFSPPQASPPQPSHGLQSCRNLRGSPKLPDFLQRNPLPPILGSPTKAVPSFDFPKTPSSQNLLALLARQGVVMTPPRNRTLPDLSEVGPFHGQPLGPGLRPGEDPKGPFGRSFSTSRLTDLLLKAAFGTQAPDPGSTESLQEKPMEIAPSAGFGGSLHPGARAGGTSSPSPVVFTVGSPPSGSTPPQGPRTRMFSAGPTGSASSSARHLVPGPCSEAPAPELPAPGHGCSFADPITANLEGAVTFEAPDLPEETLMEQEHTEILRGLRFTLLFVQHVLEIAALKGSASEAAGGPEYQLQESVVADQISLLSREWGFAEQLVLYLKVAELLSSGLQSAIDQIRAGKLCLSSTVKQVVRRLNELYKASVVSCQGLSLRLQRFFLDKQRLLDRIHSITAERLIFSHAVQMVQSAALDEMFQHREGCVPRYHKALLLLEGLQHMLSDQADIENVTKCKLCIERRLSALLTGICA
Protocol: (§1) 310 and refinement were performed with COOT [14] and Phenix.Refine to obtain a clear electron
(§2) 311 density map (1Fo-Fc) for compound MA9-060, which was built into the structure near the end of
(§3) 312 iterative cycles of model building and refinement. Crystal parameters, data collection statistics and
(§4) 313 refinement statistics are summarized in Supplementary Fig. 4D and deposited in the protein
(§5) 314 databank with PDB code 8V1M.
(§6) 317 The compounds under investigation were tested by Reaction Biology Corporation against four
(§7) 318 specific kinases in this study (JAK2, ULK1, ULK2, ULK3). Each compound was provided as a
(§8) 319 10 mM stock solution. To facilitate dissolution, the compounds were subjected to gentle heating.
(§9) 320 Subsequent testing involved the evaluation of the compounds using a 10-dose IC50 mode,
(§10) Additionally, the control compound,
(§11) Throughout these experiments, reactions were conducted using a standardized concentration
(§12) 325 The data collected during these assays encompass raw data, % enzyme activity (relative to DMSO
(§13) 327 activities at the highest concentration of compounds were less than 65%. The IC50 summary,
(§14) 328 detailing the inhibitory concentrations of the compounds against the respective kinases, is
(§15) 331 Bromodomain profiling assay
(§16) 333 evaluated against Bromodomain 1 by Reaction Biology Corporation.
(§17) 334 The compounds were subjected to testing using a 10-dose IC50 singlet approach, involving a 3-
(§18) 335 fold serial dilution starting at 10 μM, specifically against BRD4-1. Additionally, as a benchmark,
(§19) 337 dilution starting at 10 μM.
(§20) 338 For ligand and detection purposes, the H4/4Ac ligand, representing the Histone H4 peptide (1-21)
(§21) 339 with acetylation at lysine residues K5, K8, K12, and K16, and tagged with Biotin, was utilized.

ULK2 = target: T2, ULK2 (Homo sapiens, UniProt Q8IYT8); assay: as above; format: biochemical; conditions: NA = no activity
T2 construct: purchased Reaction Biology Corporation
T2 sequence (Q8IYT8 1-1036): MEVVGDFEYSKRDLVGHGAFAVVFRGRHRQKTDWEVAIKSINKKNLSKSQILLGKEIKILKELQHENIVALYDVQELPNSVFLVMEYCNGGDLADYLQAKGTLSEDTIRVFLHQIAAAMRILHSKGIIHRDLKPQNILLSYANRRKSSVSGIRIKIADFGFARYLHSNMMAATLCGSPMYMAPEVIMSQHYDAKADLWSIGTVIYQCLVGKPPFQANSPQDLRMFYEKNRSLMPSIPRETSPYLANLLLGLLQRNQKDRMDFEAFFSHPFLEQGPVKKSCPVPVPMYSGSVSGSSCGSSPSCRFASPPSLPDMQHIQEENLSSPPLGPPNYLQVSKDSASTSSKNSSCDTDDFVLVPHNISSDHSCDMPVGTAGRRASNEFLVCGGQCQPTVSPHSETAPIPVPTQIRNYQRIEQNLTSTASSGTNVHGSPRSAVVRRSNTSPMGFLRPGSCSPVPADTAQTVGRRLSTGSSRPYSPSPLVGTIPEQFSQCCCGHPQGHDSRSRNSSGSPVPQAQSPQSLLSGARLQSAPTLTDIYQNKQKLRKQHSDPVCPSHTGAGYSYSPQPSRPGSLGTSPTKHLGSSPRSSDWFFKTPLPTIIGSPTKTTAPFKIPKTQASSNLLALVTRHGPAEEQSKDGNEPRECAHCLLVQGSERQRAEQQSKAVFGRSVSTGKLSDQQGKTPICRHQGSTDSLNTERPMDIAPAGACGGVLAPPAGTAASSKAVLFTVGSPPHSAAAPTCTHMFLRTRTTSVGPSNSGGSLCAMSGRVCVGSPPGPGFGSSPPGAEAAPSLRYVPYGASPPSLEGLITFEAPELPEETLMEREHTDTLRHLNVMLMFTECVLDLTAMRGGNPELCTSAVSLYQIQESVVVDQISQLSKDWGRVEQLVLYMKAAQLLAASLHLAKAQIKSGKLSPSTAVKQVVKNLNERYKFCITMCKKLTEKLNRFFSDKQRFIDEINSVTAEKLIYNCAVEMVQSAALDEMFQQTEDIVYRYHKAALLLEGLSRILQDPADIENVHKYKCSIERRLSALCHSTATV
Protocol: as §1, §2, §3, §4, §5, §6, §7, §8, §9, §10, §11, §12, §13, §14, §15, §16, §17, §18, §19, §20, §21

Cc1cnc(Nc2ccc(C3CCN(C)CC3)c(F)c2)nc1Nc1ccc(Cl)c(NS(=O)(=O)C(C)(C)C)c1 [MA9060]
IC50 (ULK1): 1.71 µM | IC50 (ULK2): 4300 nM
